Results as given in article PMC12668304, “A Triple Threat Against Ovarian Cancer: Os(II)‐Pt(IV)‐Ceritinib Conjugates for Photodynamic Therapy, Chemotherapy, and Immunogenic Cell Death Induction” (Angewandte Chemie (International Ed. in English), 2025).

System: calreticulin (CRT) exposure on MCA205 cells
Test: Externalisation of calreticulin (confocal microscopy, anti-CRT antibody)
Assay type: cell-based, mouse
Details: positive control, light condition not stated
Method: Surface exposure of CRT was measured via confocal fluorescence microscopy after staining with an anti‐CRT antibody (ab2907). […] The surface exposure in the dark might be due to the oxaliplatin, a bona fide ICD inducer. Specifically, CRT expression increased by 67% upon irradiation and 63% in the dark, compared with non‐treated cells.
Figure 8 Translocation and changes in calreticulin (CRT) exposure on MCA205 cells determined by confocal fluorescence microscopy after 4 h treatment under dark (−L) and light (+L) (740 nm, 1 h) conditions, and an additional 16 h of incubation. DAPI: Nuclear fluorescence dye. Scale bar: 20 µm.
The localisation of the different parts of the studied complexes was determined by measuring the Os and Pt content inside A2780 cells via ICP-MS. […] After this time, the cells were trypsinized and counted. […] In parallel, the content of Os and Pt was determined in a total cell extraction (2·10 6 cells). […] The Os and Pt content was determined using an ICP -MS apparatus and comparing the results with the Os and Pt calibration standards.
A2780 cells were seeded in a 12-well plate to obtain a 90 –100% confluency. […] The cells were monitored by imaging over the following time intervals: 0, 6, 24, 32, and 48 h. […]
Extracellular ATP released from treated MCA205 and A2780 cells was detected by the luminescent ATP assay kit (ab113849). […]

SMILES: O=C1[O][Pt]2([NH][C@@H]3CCCC[C@H]3[NH]2)[O]C1=O [Oxaliplatin]
- CRT increase: 21%
